This passage reports EC50, CC50 and IC50 results from patent publication US8697739B2, “Bicyclic acetyl-CoA carboxylase inhibitors and uses thereof” (Novartis AG, priority 2010, dated 2014).

Data set [1] relates to HCVcc genotype 2a (JFH-1 strain) virus. Put plainly: HCV assay: JFH-1 rLuc infection of Huh 7.5 cells, renilla luciferase readout. The data set is classed as cell-based. To be noted: Hepatitis C virus, Huh7.5; JFH-1 rLuc virus, MOI=0.01, Huh 7.5 cells, 72 hours, luciferase activity reduced by 50%. Here is the method:
(§1) The effect of compounds on HCV infection was determined in vitro using cell cultured (HCVcc) genotype 2a (JFH-1 strain) virus. A renilla luciferase reporter gene was inserted in the viral genome, the expression of which was under the control of HCV 5′UTR (JFH-1^rLuc). Thus, the inhibition of HCV infection or replication can be indirectly measured by the reduction of luciferase activity in the cells. A specifically adapted hepatoma cell line, Huh 7.5, which allowed higher infectivity of HCV in vitro, was cultured in Dulbecco's modified Eagle's medium (DMEM) supplemented with 2 mM L-glutamine, 0.1 mM non-essential amino acids and 10% heat-inactivated fetal bovine serum. The cells were infected with JFH-1^rLuc virus at an MOI=0.01 and were treated at the same time with serially diluted compounds. After 72 hours, luciferase activities in compound-treated cells were measured using the Renilla Luciferase Assay System (Promega) and were compared to those in untreated control cells. Concentration-dependent inhibition curves were generated, from which EC50 values, the concentrations of compounds at which luciferase activities were reduced by 50% relative to untreated control, were calculated. In parallel, cytotoxicity of compounds was determine by measuring the viability of compound-treated cells using CellTiter 96® AQueous One Solution Cell Proliferation Assay (Promega). CC50 represented the concentration of the compound at which cell viability was reduced by 50% compared to untreated control.

A further data set can be described thus: in vitro. It counts as cell-based. To be noted: human. Here is the method:
as §1

The target in data set [2] is T1, human acetyl-CoA carboxylase 2 (ACC2) (Homo sapiens, UniProt O00763).
T1 construct: The cDNA encoding amino acids 144 to 2458 of human acetyl-CoA carboxylase 2; made in house; host or cells: Sf9 insect cells (baculovirus, pFastBac1)
T1 sequence (O00763 144-2458): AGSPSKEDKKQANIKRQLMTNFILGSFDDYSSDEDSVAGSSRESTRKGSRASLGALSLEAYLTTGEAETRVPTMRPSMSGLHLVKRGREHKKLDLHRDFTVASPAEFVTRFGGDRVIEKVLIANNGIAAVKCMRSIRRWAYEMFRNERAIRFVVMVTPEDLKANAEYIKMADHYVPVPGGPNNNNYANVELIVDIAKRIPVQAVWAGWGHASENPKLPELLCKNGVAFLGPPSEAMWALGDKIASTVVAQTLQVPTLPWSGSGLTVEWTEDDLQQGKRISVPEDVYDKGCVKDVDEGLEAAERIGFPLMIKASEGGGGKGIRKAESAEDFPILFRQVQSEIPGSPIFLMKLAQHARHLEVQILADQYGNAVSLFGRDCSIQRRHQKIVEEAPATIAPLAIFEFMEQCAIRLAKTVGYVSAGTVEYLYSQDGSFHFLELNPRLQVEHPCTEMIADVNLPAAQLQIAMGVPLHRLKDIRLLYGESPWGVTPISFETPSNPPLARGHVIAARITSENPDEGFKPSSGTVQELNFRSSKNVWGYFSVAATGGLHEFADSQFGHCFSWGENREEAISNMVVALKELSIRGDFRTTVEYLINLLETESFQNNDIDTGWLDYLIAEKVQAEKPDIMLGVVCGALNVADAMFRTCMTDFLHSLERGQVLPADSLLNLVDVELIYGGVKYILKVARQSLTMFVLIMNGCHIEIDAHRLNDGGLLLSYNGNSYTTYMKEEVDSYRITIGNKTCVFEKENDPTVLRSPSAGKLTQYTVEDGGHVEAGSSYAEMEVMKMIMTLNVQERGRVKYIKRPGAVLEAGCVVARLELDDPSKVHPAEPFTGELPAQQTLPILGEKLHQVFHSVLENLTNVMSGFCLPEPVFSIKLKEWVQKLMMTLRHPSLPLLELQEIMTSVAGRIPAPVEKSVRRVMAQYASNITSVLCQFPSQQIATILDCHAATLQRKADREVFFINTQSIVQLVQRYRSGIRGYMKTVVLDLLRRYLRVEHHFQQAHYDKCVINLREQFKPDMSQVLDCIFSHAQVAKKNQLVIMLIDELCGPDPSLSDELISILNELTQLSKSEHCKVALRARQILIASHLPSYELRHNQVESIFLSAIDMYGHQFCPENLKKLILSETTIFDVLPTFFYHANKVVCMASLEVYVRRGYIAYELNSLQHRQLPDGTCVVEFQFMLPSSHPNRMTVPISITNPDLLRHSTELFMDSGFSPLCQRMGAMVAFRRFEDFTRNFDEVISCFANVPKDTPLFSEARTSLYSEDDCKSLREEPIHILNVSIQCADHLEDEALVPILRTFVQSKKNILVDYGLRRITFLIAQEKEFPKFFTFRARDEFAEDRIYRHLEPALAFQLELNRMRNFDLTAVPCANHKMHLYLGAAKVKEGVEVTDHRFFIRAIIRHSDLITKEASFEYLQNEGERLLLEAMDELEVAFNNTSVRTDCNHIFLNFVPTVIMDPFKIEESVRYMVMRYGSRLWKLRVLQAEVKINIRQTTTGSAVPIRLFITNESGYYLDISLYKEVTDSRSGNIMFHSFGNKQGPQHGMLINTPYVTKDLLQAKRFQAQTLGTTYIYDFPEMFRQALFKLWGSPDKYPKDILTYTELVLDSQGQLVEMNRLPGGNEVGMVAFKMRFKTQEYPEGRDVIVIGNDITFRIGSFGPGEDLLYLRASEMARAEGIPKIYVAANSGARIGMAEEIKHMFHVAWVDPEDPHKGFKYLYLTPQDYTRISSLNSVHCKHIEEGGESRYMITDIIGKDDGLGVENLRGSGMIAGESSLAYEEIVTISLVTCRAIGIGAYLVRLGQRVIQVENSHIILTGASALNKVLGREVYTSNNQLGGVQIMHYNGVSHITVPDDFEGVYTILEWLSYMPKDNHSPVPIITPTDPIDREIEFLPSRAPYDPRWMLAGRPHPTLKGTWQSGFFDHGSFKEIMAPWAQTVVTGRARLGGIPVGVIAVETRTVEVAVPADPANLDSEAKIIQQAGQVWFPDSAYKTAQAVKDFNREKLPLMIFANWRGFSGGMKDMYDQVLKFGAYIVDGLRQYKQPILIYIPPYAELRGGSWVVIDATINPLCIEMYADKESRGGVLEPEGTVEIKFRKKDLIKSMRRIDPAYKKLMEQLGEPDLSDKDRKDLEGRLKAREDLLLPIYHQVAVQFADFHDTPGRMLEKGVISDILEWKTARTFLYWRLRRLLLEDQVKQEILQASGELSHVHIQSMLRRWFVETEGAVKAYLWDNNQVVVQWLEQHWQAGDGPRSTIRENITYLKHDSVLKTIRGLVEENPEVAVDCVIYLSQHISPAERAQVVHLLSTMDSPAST
The data set can be described thus: Acetyl-CoA carboxylase enzyme assay (malonyl-CoA formation by LC/MS/MS). The data set is classed as biochemical. The settings on record: recombinant human ACC2 (aa 144-2458); read-out: IC50 ACC2. The method in brief: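 Malonyl-CoA formation was read by LC/MS/MS MRM against a [13C3]-malonyl-CoA internal standard, after acetic acid quench. The enzyme was baculovirus/Sf9-expressed human ACC2 residues 144–2458, given 15 minutes room-temperature compound preincubation in HEPES pH 7.5 buffer with MgCl2, citrate and DTT. Substrate solution held 50 μM acetyl-CoA, 120 μM ATP and 2 mM KHCO3.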

Usually EC50 stands for the midpoint of the concentration-response curve. The CC50 is the concentration giving 50% cytotoxicity. The low end stands for greater toxicity to the cells, the high end for lower toxicity to the cells. As a reminder, the IC50 is the concentration that gives 50% inhibition. For the compound `COCCc1ccc(-c2[nH]c3cc(S(=O)(=O)N[C@H]4CC[C@H](C(=O)N5CCOC[C@@H]5C)CC4)ccc3c2Cl)cc1` [Example 31, 3-chloro-2-(4-(2-methoxyethyl)phenyl)-N-((1S,4r)-4-((S)-3-methylmorpholine-4-carbonyl)cyclohexyl)-1H-indole-6-sulfonamide], the midpoint of the response in data set [1], the EC50, lay at 0.14 µM. In addition, the midpoint of cytotoxicity in “in vitro”, the CC50 at 72 h, lay at 24 µM. Moreover, the IC50 in data set [2] was below 0.01 µM.

`C[C@@H](NC(=O)[C@H]1CC[C@H](NS(=O)(=O)c2cnc3c(c2)N(C(=O)OCCOCc2ccccc2)CCN3)CC1)c1ccc(F)cc1` [Example 208, 2-(benzyloxy)ethyl 7-(N-((1R,4r)-4-((R)-1-(4-fluorophenyl)ethylcarbamoyl)cyclohexyl)sulfamoyl)-3,4-dihydropyrido[3,2-b]pyrazine-1(2H)-carboxylate] gave a concentration for a half-maximal effect (EC50) in data set [1] of 4.74 µM. In the data set “in vitro”, this compound gave a CC50 at 72 h above 16.7 µM. In data set [2], the half-inhibitory concentration (IC50) was 0.595 µM.

Take `CCOc1ccc2cc(S(=O)(=O)N[C@H]3CC[C@H](C(=O)N[C@H](COC(=O)[C@@H](NC)C(C)C)c4ccccc4)CC3)ccc2n1` [Example 272, (S)-((S)-2-((1r,4S)-4-(2-ethoxyquinoline-6-sulfonamido)cyclohexanecarboxamido)-2-phenylethyl) 3-methyl-2-(methylamino)butanoate]: the midpoint of the response in data set [1], the EC50, lay at 14.1 µM. In addition, the cytotoxic concentration (CC50) at 72 h in the data set “in vitro” is above 16.7 µM. Besides, the half-inhibitory concentration (IC50) in data set [2] turned out to be 0.175 µM.

For the compound `Cn1c(-c2ccccc2)cc2ccc(S(=O)(=O)N[C@H]3CC[C@H](C(=O)N4CCN(c5ncccn5)CC4)CC3)cc21` [Example 431, 1-methyl-2-phenyl-N-((1r,4r)-4-(4-(pyrimidin-2-yl)piperazine-1-carbonyl)cyclohexyl)-1H-indole-6-sulfonamide], the concentration giving a half-maximal response (EC50) in data set [1] is 2.23 µM. This compound also returned a CC50 at 72 h in “in vitro” above 33 µM. Moreover, the IC50 in data set [2] turned out to be 0.13 µM.

In data set [1], `Cn1c(C2CC2)cc2ccc(S(=O)(=O)N[C@H]3CC[C@H](C(=O)N4CCOC[C@@H]4C4CC4)CC3)cc21` [Example 458, 2-cyclopropyl-N-((1S,4r)-4-((S)-3-cyclopropylmorpholine-4-carbonyl)cyclohexyl)-1-methyl-1H-indole-6-sulfonamide] yielded a concentration for a half-maximal effect (EC50) of 0.24 µM. For the same compound, the CC50 at 72 h in “in vitro” is above 33 µM. The IC50 in data set [2] worked out at 0.035 µM.

`Cn1c(C2CC2)cc2ccc(S(=O)(=O)N[C@H]3CC[C@H](C(=O)NC(C4CC4)C4CC4)CC3)cc21` [Example 459, (1r,4r)-4-(2-cyclopropyl-1-methyl-1H-indole-6-sulfonamido)-N-(dicyclopropylmethyl)cyclohexanecarboxamide] displayed an EC50 in data set [1] of 0.21 µM. In addition, the cytotoxic concentration (CC50) at 72 h in the data set “in vitro” was determined as 26 µM. Also, in data set [2], the IC50 stood at 0.63 µM.

Compound `COC(=O)CCc1ccc(-c2cc3ccc(S(=O)(=O)N[C@H]4CC[C@H](C(=O)N5CCOC[C@@H]5C5CC5)CC4)cc3n2C)cc1` [Example 473, methyl 3-(4-(6-(N-((1S,4r)-4-((S)-3-cyclopropylmorpholine-4-carbonyl)cyclohexyl)sulfamoyl)-1-methyl-1H-indol-2-yl)phenyl)propanoate] showed a 50% effective concentration (EC50) in data set [1] of 0.2 µM. The compound also registered a half-maximal cytotoxic concentration (CC50) at 72 h in the data set “in vitro” above 33 µM. Also, in data set [2], the IC50 is below 0.01 µM.

In turn, `O=C([C@H]1CC[C@H](NS(=O)(=O)c2ccc3c(Cl)c(-c4ccccc4)[nH]c3c2)CC1)N1CCOC[C@@H]1C1CC1` [Example 474, 3-chloro-N-((1S,4r)-4-((S)-3-cyclopropylmorpholine-4-carbonyl)cyclohexyl)-2-phenyl-1H-indole-6-sulfonamide] yielded an EC50 in data set [1] of 0.029 µM. In “in vitro”, this compound gave a half-maximal cytotoxic concentration (CC50) at 72 h above 67 µM. Moreover, in data set [2], the half-inhibitory concentration (IC50) is below 0.01 µM.

In turn, `C[C@@H]1CN(C(=O)[C@H]2CC[C@H](NS(=O)(=O)c3ccc4c(Cl)c(-c5ccccc5)[nH]c4c3)CC2)C[C@H](C)O1` [Example 477, 3-chloro-N-((1R,4r)-4-((2S,6R)-2,6-dimethylmorpholine-4-carbonyl)cyclohexyl)-2-phenyl-1H-indole-6-sulfonamide] yielded an EC50 in data set [1] of 0.04 µM. Also, the CC50 at 72 h in “in vitro” was 12 µM. Moreover, in data set [2], the IC50 is below 0.01 µM.

For `Cn1c(-c2ccccc2)cc2ccc(S(=O)(=O)N[C@H]3CC[C@H](C(=O)N4CCOC[C@@H]4C4CC4)CC3)cc21` [Example 479, N-((1S,4r)-4-((S)-3-cyclopropylmorpholine-4-carbonyl)cyclohexyl)-1-methyl-2-phenyl-1H-indole-6-sulfonamide], in data set [1], the 50% effective concentration (EC50) amounted to 1.27 µM. The compound also came in with a half-maximal cytotoxic concentration (CC50) at 72 h in “in vitro” above 33 µM. The IC50 in data set [2] was determined as 0.01 µM.

`Cn1c(-c2ccccc2)cc2ccc(S(=O)(=O)N[C@H]3CC[C@H](C(=O)N4CC5(CN(C(=O)OC(C)(C)C)C5)C4)CC3)cc21` [Example 483, tert-butyl 6-((1r,4r)-4-(1-methyl-2-phenyl-1H-indole-6-sulfonamido)cyclohexanecarbonyl)-2,6-diazaspiro[3.3]heptane-2-carboxylate] came in with an EC50 in data set [1] of 0.04 µM. The same compound had a half-maximal cytotoxic concentration (CC50) at 72 h in “in vitro” of 16 µM. In addition, the IC50 in data set [2] was 0.075 µM.
